In ChEMBL document CHEMBL5705888, “Substrate specificity and inhibitors of LRRK2, a protein kinase mutated in Parkinson's disease” (Biochem J, 2009):

Key:
[1] = biological target: Serine/threonine-protein kinase Chk2 (Homo sapiens) (UniProt O96017); assay: Inhibition of CHK2 (unknown origin) at 10 uM incubated for 30 mins in presence of [gamma-33P]ATP by multidrop micro reagent based assay relative to control; values are per cent of control
[2] = biological target: T1, Eukaryotic elongation factor 2 kinase (Homo sapiens) (UniProt O00418); assay: Inhibition of EF2K (unknown origin) at 10 uM incubated for 30 mins in presence of [gamma-33P]ATP by multidrop micro reagent based assay relative to control; values are per cent of control
T1 sequence (whole entry): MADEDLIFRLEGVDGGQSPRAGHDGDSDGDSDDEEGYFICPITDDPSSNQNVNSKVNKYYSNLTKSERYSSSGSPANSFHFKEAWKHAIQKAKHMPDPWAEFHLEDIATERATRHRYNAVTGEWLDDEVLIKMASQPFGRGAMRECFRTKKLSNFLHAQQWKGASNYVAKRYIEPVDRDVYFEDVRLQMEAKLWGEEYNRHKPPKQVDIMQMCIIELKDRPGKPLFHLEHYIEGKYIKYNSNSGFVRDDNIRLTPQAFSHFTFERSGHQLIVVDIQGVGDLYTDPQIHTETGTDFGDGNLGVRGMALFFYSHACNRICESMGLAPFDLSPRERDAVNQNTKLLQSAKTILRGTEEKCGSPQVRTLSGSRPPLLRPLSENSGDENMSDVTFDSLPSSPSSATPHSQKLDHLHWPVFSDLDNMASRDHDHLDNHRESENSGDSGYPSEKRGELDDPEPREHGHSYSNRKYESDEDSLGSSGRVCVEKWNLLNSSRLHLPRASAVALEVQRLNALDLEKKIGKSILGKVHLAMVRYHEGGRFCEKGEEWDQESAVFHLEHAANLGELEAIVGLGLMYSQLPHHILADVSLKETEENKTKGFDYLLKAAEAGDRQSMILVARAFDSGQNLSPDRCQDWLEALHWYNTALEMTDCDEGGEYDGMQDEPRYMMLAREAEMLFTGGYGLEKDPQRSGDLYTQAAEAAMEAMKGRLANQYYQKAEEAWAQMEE

[3] = biological target: T2, Interleukin-1 receptor-associated kinase 4 (Homo sapiens) (UniProt Q9NWZ3); assay: Inhibition of IRAK4 (unknown origin) at 10 uM incubated for 30 mins in presence of [gamma-33P]ATP by multidrop micro reagent based assay relative to control; values are per cent of control
T2 sequence (whole entry): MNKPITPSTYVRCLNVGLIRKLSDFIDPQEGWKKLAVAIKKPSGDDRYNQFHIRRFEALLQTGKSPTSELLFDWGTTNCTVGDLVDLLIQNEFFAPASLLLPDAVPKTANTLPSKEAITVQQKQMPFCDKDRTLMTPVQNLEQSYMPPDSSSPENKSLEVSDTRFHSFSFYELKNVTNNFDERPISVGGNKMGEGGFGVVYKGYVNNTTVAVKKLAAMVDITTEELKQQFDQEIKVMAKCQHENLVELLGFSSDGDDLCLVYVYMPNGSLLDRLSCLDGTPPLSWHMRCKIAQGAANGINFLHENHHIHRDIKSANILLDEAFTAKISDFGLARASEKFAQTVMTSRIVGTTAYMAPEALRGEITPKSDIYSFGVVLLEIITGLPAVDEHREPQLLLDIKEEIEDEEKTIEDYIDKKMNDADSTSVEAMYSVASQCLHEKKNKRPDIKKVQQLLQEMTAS

[4] = biological target: Mitogen-activated protein kinase 9 (Homo sapiens) (UniProt P45984); assay: Inhibition of JNK2 (unknown origin) at 1 uM incubated for 30 mins in presence of [gamma-33P]ATP by multidrop micro reagent based assay relative to control; values are per cent of control
[5] = biological target: T3, Mitogen-activated protein kinase 15 (Homo sapiens) (UniProt Q8TD08); assay: Inhibition of ERK8 (unknown origin) at 1 uM incubated for 30 mins in presence of [gamma-33P]ATP by multidrop micro reagent based assay relative to control; values are per cent of control
T3 sequence (whole entry): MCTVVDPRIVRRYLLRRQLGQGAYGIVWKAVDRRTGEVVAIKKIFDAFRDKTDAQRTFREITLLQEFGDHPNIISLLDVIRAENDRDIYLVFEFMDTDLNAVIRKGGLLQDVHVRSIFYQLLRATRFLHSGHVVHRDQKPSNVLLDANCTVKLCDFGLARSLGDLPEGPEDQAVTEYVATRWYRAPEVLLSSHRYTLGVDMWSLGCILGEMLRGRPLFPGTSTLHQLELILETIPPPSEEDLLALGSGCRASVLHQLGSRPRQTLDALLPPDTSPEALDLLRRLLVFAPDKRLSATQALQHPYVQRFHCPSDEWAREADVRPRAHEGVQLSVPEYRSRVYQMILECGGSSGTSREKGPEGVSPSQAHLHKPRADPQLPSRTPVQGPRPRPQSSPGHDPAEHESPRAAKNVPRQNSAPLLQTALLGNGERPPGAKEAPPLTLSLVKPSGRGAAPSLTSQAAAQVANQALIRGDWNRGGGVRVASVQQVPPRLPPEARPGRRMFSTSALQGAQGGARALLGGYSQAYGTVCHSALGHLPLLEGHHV

[6] = biological target: MAP kinase-interacting serine/threonine-protein kinase 1 (Homo sapiens) (UniProt Q9BUB5); assay: Inhibition of MNK1 (unknown origin) at 1 uM incubated for 30 mins in presence of [gamma-33P]ATP by multidrop micro reagent based assay relative to control; values are per cent of control
Sequence of MAP kinase-interacting serine/threonine-protein kinase 1 (Homo sapiens) (Q9BUB5 whole entry, looked up): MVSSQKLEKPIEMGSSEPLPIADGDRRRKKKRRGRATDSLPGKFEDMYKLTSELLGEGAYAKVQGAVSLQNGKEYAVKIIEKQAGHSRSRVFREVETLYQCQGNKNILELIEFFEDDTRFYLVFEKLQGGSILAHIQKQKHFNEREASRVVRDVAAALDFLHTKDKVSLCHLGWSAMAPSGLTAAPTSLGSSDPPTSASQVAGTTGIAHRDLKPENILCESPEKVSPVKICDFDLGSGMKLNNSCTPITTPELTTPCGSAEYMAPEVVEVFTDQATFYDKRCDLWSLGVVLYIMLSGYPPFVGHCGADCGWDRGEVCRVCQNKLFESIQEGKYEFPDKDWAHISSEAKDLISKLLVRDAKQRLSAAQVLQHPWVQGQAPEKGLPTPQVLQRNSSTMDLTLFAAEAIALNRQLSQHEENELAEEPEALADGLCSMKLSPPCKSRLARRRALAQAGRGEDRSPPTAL

Sequence of Serine/threonine-protein kinase Chk2 (Homo sapiens) (O96017 whole entry): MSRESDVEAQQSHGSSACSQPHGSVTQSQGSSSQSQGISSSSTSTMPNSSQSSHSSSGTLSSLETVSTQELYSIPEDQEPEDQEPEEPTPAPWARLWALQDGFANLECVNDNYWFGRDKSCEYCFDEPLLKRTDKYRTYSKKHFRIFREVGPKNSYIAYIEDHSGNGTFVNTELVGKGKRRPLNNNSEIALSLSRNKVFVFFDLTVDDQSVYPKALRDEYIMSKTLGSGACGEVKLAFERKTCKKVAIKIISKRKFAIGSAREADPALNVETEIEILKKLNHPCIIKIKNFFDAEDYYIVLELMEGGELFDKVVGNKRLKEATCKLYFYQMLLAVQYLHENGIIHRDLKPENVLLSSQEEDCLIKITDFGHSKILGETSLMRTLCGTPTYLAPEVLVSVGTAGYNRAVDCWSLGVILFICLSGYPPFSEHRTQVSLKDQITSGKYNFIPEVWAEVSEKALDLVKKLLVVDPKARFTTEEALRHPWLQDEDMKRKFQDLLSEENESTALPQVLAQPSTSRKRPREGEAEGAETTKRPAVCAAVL
Sequence of Mitogen-activated protein kinase 9 (Homo sapiens) (P45984 whole entry, looked up): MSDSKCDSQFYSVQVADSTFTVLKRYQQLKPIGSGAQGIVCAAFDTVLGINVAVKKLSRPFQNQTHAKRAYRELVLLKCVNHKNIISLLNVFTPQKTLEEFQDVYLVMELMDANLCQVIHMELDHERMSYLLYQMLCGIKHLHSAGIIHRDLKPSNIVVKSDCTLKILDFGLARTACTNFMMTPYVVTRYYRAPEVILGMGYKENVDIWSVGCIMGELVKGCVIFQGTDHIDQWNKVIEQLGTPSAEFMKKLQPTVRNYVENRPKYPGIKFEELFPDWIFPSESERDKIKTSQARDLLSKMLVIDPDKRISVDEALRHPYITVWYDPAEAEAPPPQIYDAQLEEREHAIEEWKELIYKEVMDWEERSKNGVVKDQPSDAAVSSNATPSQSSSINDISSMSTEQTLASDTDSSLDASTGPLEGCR

| Structure (SMILES) | residual activity [1] [%] | residual activity [2] [%] | residual activity [3] [%] | residual activity [4] [%] | residual activity [5] [%] | residual activity [6] [%] |
| --- | --- | --- | --- | --- | --- | --- |
| C[C@@H](N)[C@H]1CC[C@H](C(=O)Nc2ccncc2)CC1 | 93 | 81 | 101 |  |  |  |
| CCn1c(-c2nonc2N)nc2cnc(Oc3cccc(NC(=O)c4ccc(OCCN5CCOCC5)cc4)c3)cc21 [GSK-269962A] |  |  |  | 101 | 27 |  |
| O=S(=O)(c1cccc2cnccc12)N1CCCNCC1 [FASUDIL] | 34 | 120 | 69 |  |  |  |
| Cc1cncc2cccc(S(=O)(=O)N3CCCNC[C@@H]3C)c12 |  |  |  |  |  | 50 |
| CC1=C(C(=O)Nc2cc3cn[nH]c3cc2F)C(c2ccc(C(F)(F)F)cc2)CC(=O)N1 (configuration not stated) |  |  |  | 101 | 95 | 91 |
